From patent US20250059185A1 (Hoffmann-La Roche Inc., priority 2021, published 2025)

Each molecule was assayed against MAGL (Homo sapiens (Human), UniProt Q99685) (assay: 2-AG assay (MAGL inhibitory activity, hydrolysis of 2-arachidonoylglycerol followed by mass spectrometry)). Conditions: 50 pM MAGL protein, 15 min pre-incubation, 30 min incubation at RT.
Format: biochemical
From the text: Compounds of formula (II) were profiled for MAGL inhibitory activity by determining the enzymatic activity by following the hydrolysis of the natural substrate 2-arachidonoylglycerol (2-AG) resulting in arachidonic acid, which can be followed by mass spectrometry. This assay is hereinafter abbreviated “2-AG assay”.
Compounds of formula (II) were profiled for MAGL inhibitory activity by determining the enzymatic activity by following the hydrolysis of the natural substrate 2-arachidonoylglycerol (2-AG) resulting in arachidonic acid, which can be followed by mass spectrometry. This assay is hereinafter abbreviated “2-AG assay”. The 2-AG assay was carried out in 384 well polypropylene assay plates. Compound dilutions were made in 100% DMSO in a polypropylene plate in 3-fold dilution steps to give a final concentration range in the assay from 12.5 μM to 0.8 pM. Compound dilutions were added to MAGL protein in assay buffer (50 mM TRIS, 1 mM EDTA, 0.01% (v/v) Tween-20, 2.5% (v/v) DMSO). After shaking, the plate was incubated for 15 min at RT. To start the reaction, 2-arachidonoylglycerol in assay buffer was added. The final concentrations in the assay was 50 pM for MAGL protein and […] 2-arachidonoylglyerol. After shaking and 30 min incubation at RT, the reaction was quenched by the addition of two assay volumes of acetonitrile containing 4 μM of d8-arachidonic acid. The amount of arachidonic acid formed was traced by an online SPE system (Agilent Rapidfire) coupled to a triple quadrupole mass spectrometer. A C18 SPE cartridge (Agilent G9205A) was used in an acetonitrile/water liquid setup. The mass spectrometer was operated in negative electrospray mode following the mass transitions 303.1→259.1 for arachidonic acid and 311.1→267.0 for d8-arachidonic acid. The activity of the compounds was calculated based on the ratio of intensities [arachidonic acid/d8-arachidonic acid].

Sequence of MAGL (Q99685 whole entry, species assumed): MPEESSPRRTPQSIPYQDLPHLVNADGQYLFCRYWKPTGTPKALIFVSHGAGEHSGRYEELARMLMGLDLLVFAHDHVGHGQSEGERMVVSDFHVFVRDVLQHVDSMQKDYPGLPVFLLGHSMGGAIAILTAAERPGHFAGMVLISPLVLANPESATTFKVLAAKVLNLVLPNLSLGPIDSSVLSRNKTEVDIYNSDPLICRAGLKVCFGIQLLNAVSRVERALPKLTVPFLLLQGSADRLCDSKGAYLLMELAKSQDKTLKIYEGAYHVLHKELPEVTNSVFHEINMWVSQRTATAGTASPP

| Compound | IC50 [nM] |
| --- | --- |
| C[C@H]1c2nn(C)c(-c3cc(F)cc(F)c3)c2CCN1C(=O)c1ncn(-c2cc(Cl)cnc2O)n1 [Example 35, [1-(5-Chloro-2-hydroxy-3-pyridyl)-1,2,4-triazol-3-yl]-[(7S)-3-(3,5-difluorophenyl)-2,7-dimethyl-5,7-dihydro-4H-pyrazolo[3,4-c]pyridin-6-yl]methanone] | 104 |
| CC1c2nn(C)c(-c3cc(Cl)cc(C4(NS(C)(=O)=O)CC4)c3)c2CCN1C(=O)c1cc(F)cc(CCc2c[nH]nn2)c1Cl (stereo not shown) [Example 87, N-[1-[3-chloro-5-[6-[2-chloro-5-fluoro-3-[2-(H-triazol-4-yl)ethyl]benzoyl]-2,7-dimethyl-5,7-dihydro-4H-pyrazolo[3,4-c]pyridin-3-yl]phenyl]cyclopropyl]methanesulfonamide] | 8.15 |
| C[C@H]1c2nn(C)c(-c3cc(F)cc(F)c3)c2CCN1C(=O)c1cc(F)cc(-c2cc[nH]c(=O)c2)c1Cl [Example 31, 4-[2-Chloro-3-[(7S)-3-(3,5-difluorophenyl)-2,7-dimethyl-5,7-dihydro-4H-pyrazolo[3,4-c]pyridine-6-carbonyl]-5-fluoro-phenyl]-1H-pyridin-2-one] | 3 |
| C[C@H]1c2nn(C)c(-c3cc(F)cc(F)c3)c2CCN1C(=O)c1cc(F)cc(N2CC(S(C)(=O)=O)C2)c1Cl [Example 23, [2-Chloro-5-fluoro-3-(3-methylsulfonylazetidin-1-yl)phenyl]-[(7S)-3-(3,5-difluorophenyl)-2,7-dimethyl-5,7-dihydro-4H-pyrazolo[3,4-c]pyridin-6-yl]methanone] | 27 |
| C[C@H]1c2nn(C)c(-c3cc(Cl)cc(C4(C(N)=O)CC4)c3)c2CCN1C(=O)c1cc(F)cc(N2CC3(C2)CS(=O)(=O)C3)c1Cl [Example 75, 1-[3-chloro-5-[(7S)-6-[2-chloro-3-(2,2-dioxo-2λ^6-thia-6-azaspiro[3.3]heptan-6-yl)-5-fluoro-benzoyl]-2,7-dimethyl-5,7-dihydro-4H-pyrazolo[3,4-c]pyridin-3-yl]phenyl]cyclopropanecarboxamide] | 1240 |
| C[C@H]1c2nn(C)c(-c3cc(F)cc(F)c3)c2CCN1C(=O)c1cc(F)cc(OCC2CNC(=O)C2)c1Cl (stereo in doubt) [Example 37, 4-[[2-Chloro-3-[3-(3,5-difluorophenyl)-2,7-dimethyl-5,7-dihydro-4H-pyrazolo[3,4-c]pyridine-6-carbonyl]-5-fluoro-phenoxy]methyl]pyrrolidin-2-one] | 5 |
| C[C@H]1c2nn(C)c(-c3cncc(C(F)(F)F)n3)c2CCN1C(=O)c1cc(F)cc(-c2c[nH]c(C#N)c2)c1Cl [Example 64, 4-[2-chloro-3-[(7S)-2,7-dimethyl-3-[6-(trifluoromethyl)pyrazin-2-yl]-5,7-dihydro-4H-pyrazolo[3,4-c]pyridine-6-carbonyl]-5-fluoro-phenyl]-1H-pyrrole-2-carbonitrile] | 13 |
| C[C@@H]1c2nn(C)c(-c3cc(Cl)cc(C4(C(N)=O)CC4)c3)c2CCN1C(=O)c1cc(F)cc(N2CC3(C2)CS(=O)(=O)C3)c1Cl [Example 76, 1-[3-chloro-5-[(7R)-6-[2-chloro-3-(2,2-dioxo-2λ^6-thia-6-azaspiro[3.3]heptan-6-yl)-5-fluoro-benzoyl]-2,7-dimethyl-5,7-dihydro-4H-pyrazolo[3,4-c]pyridin-3-yl]phenyl]cyclopropanecarboxamide] | 1420 |
| COc1cccc(C(=O)N2CCn3c(-c4cccc(Cl)c4)nnc3[C@@H]2C)c1Cl [Example 116, (2-chloro-3-methoxy-phenyl)-[(5S)-9-(3-chlorophenyl)-5-methyl-1,4,7,8-tetrazabicyclo[4.3.0]nona-1(9),6-dien-4-yl]methanone] | 2380 |
| C[C@H]1c2nn(C)c(-c3cc(F)cc(F)c3)c2CCN1C(=O)c1ccc(CCC2CNC(=O)C2)cc1Cl (stereo in doubt) [Example 47, 4-[2-[3-Chloro-4-[3-(3,5-difluorophenyl)-2,7-dimethyl-5,7-dihydro-4H-pyrazolo[3,4-c]pyridine-6-carbonyl]phenyl]ethyl]pyrrolidin-2-one] | 127 |
